Experimental data taken from patent US20260185169A1, “MOLECULAR SIGNATURES TO PREDICT LONG-TERM LIVER FIBROSIS PROGRESSION” (THE BOARD OF REGENTS OF THE UNIVERSITY OF TEXAS SYSTEM, priority 2022, published 2026).

Assays:
clinical PCLS tissues = assay: FPS/PLS response (CES, nCounter) in organotypic ex vivo culture of clinical PCLS tissues; type: cell-based, human
Description: Evaluation of galunisertib, erlotinib, AM095, bortezomib, pioglitazone, metformin, epigallocatechin gallate (EGCG), I-BET 151, JQ1, captopril, nizatidine (Selleck Chemicals); MG-132 (Sigma-Aldrich); cenicriviroc (AbbVie) (Table 2) were done in organotypic ex vivo culture of precision-cut liver slice (PCLS) tissues in the FPS validation set 2 as previously described. Patient-derived liver cell spheroids were generated from a cirrhosis patient and high-risk FPS was induced by free fatty acids, and treated with EGCG, bortezomib, cenicriviroc, and/or bezafibrate for 48 h. Mycoplasma-free human hepatic myofibroblast cell lines, LX-2 and TWNT-4, were cultured with MG-132 (20 μM) or DMSO control for 12 and 24 h in triplicates.
Total RNA was isolated from fixed tissue sections by using High Pure RNA Paraffin kit (Roche), and assessed for quality by qRT-PCR of RPL13A. Total RNA from the PCLS tissues was isolated using RNeasy kit (Qiagen). RNA samples (100-200 ng) were subjected to the PLS/FPS assay implemented in the nCounter platform (NanoString), and transcriptome profiling of the CENTAUR trial samples was performed by RNA-Seq (TrueSeq RNA Access, Illumina). Expression of BCL2, COL1A1, and ACTA2 genes was measured by qRT-PCR (Table 3). Serum protein profiling was performed by using xMAP assay (Luminex).
Total RNA was isolated from three to five 10-μm-thick formalin-fixed paraffin-embedded (FFPE) tissue sections from the PLS/FPS derivation/validation cohorts by using High Pure RNA Paraffin kit (Roche), and lack of severe RNA fragmentation was confirmed by qRT-PCR of a housekeeping gene RPL13A as previously described.^1 From freshly harvested myofibroblast cell lines, LX-2 and TWNT-4, and clinical precision-cut-liver slice (PCLS) tissues stored in RNAlater (ThermoFisher) at −80?C, total RNA was isolated using RNeasy kit (Qiagen), and the RNA integrity number (RIN)>8 by Bioanalyzer (Agilent) was regarded as sufficient quality for expression analysis. Total RNA samples (100 to 500 ng) were subjected to the gene signature assays implemented in the digital transcript counting technology (NanoString) according to manufacturer's instruction. Poor quality profiles were detected based on maximum signal intensity from positive control probes <3,000U. Raw transcript count data were log-transformed (base 2) and scaled by geometric mean of control probe data by using NanoString normalizer module implemented in GenePattern data analysis suite (www.broadinstitute.org/genepattern). Genome-wide transcriptome profiling of the CENTAUR trial samples was performed using 100 to 200 ng total RNA by RNA-Seq using exome-enriched library preparation according to the manufacturer's protocol (TrueSeq, Illumina). Raw sequencing reads were mapped onto the reference human genome (hg19) by using the STAR aligner (ver. 2.6.1b) followed by the read counting on genes via featureCounts in the Subread package (ver. 1.6.1). The raw read counts were further normalized by using the Relative Log Expression (RLE) implemented in the DESeq2 package (ver. 1.22.2). Expression of COL1A1, and ACTA2, and BCL2 genes was measured by qRT-PCR (BioRad) using ddCt method with RPL13A as housekeeping gene, as previously described (refer Table 3 for the primer sequences). Gene expression profiles of the PLS/FPS-inducible cell culture model (cell-culture-derived PLS [cPLS] system) treated with erlotinib, pioglitazone, captopril, and resveratrol were obtained from our previous study (GSE81801).

[1] = test system: NASH patients with F1 to F3 fibrosis; conditions: phase IIb CENTAUR trial, 1-year treatment; cited from earlier work

CCCCOCCOc1ccc(-c2ccc3c(c2)/C=C(/C(=O)Nc2ccc([S@@+]([O-])Cc4cncn4CCC)cc2)CCCN3CC(C)C)cc1 [Cenicriviroc]
FPS response rate (number of responding patients) (clinical PCLS tissues; count of patients with CES-based FPS response, PCLS cultured 24 h with agent vs vehicle): 4 | PLS response rate (number of responding patients) (clinical PCLS tissues; count of patients with PLS response, ex vivo PCLS culture): 7 | histological fibrosis [1]: improved histological fibrosis
